Measured values from ChEMBL document CHEMBL4699513, “Sulfamic acid catalyzed synthesis of new 3,5-[(sub)phenyl]-1H-pyrazole bearing N-isonicotinoyl: And their pharmacological activity evaluation” (2020).
Converted amounts (≈) assume the structure as drawn. The source made the active and inactive calls. The rule behind the calls is not given here.

Legend:
[1] = test system: Mycobacterium tuberculosis; assay: Antimycobacterial activity against Mycobacterium tuberculosis H37Rv assessed as bacterial growth inhibition; format: functional
[2] = test system: Mycobacterium tuberculosis; assay: Antimycobacterial activity against Mycobacterium tuberculosis H37Rv assessed as bacterial growth inhibition at MIC of 1.4 uM; format: functional; parameters: scale not given: the % may be the effect or the level left
[3] = test system: Pseudomonas aeruginosa; assay: Antimicrobial activity against Pseudomonas aeruginosa ATCC 19429 incubated for 24 hrs by broth microdilution method; format: functional
[4] = test system: Staphylococcus aureus; assay: Antimicrobial activity against Staphylococcus aureus ATCC 29737 incubated for 24 hrs by broth microdilution method; format: functional
[5] = test system: Salmonella typhi; assay: Antimicrobial activity against Salmonella typhi ATCC 23564 incubated for 24 hrs by broth microdilution method; format: functional, Salmonella enterica subsp. enterica serovar Typhi; conditions: Salmonella enterica
[6] = test system: Pseudomonas aeruginosa; assay: Antimicrobial activity against Pseudomonas aeruginosa ATCC 19429 assessed as zone of inhibition at 4 mg/ml incubated for 24 hrs by agar well diffusion method; format: functional; conditions: for zone of inhibition at 4000 µg/mL: read-out: IZ
[7] = test system: Escherichia coli; assay: Antimicrobial activity against Escherichia coli ATCC 25922 assessed as zone of inhibition at 4 mg/ml incubated for 24 hrs by agar well diffusion method; format: functional; conditions: read-out: IZ
[8] = Antioxidant activity assessed as DPPH radical scavenging activity at 250 to 1000 ug/ml after 30 mins by UV-Vis spectrophotometric analysis; format: functional; conditions: dose microg/ml 250-1000, time 30.0 min
[9] = test system: Staphylococcus aureus; assay: Antimicrobial activity against Staphylococcus aureus ATCC 29737 assessed as zone of inhibition at 4 mg/ml incubated for 24 hrs by agar well diffusion method; format: functional; conditions: read-out: IZ
[10] = test system: Escherichia coli; assay: Antimicrobial activity against Escherichia coli ATCC 25922 incubated for 24 hrs by broth microdilution method; format: functional
[11] = test system: Salmonella typhi; assay: Antimicrobial activity against Salmonella typhi ATCC 23564 assessed as zone of inhibition at 4 mg/ml incubated for 24 hrs by agar well diffusion method; format: functional, Salmonella enterica subsp. enterica serovar Typhi; conditions: Salmonella enterica, read-out: IZ
[12] = test system: Mycobacterium tuberculosis; assay: Antimycobacterial activity against Mycobacterium tuberculosis H37Rv assessed as bacterial growth inhibition at MIC of 614 uM; format: functional; parameters: scale not given: the % may be the effect or the level left
[13] = test system: Mycobacterium tuberculosis; assay: Antimycobacterial activity against Mycobacterium tuberculosis H37Rv assessed as bacterial growth inhibition at MIC of 566 uM; format: functional; parameters: scale not given: the % may be the effect or the level left
[14] = test system: Mycobacterium tuberculosis; assay: Antimycobacterial activity against Mycobacterium tuberculosis H37Rv assessed as bacterial growth inhibition at MIC of 294 uM; format: functional; parameters: scale not given: the % may be the effect or the level left
[15] = test system: Mycobacterium tuberculosis; assay: Antimycobacterial activity against Mycobacterium tuberculosis H37Rv assessed as bacterial growth inhibition at MIC of 164 uM; format: functional; parameters: scale not given: the % may be the effect or the level left
[16] = test system: Mycobacterium tuberculosis; assay: Antimycobacterial activity against Mycobacterium tuberculosis H37Rv assessed as bacterial growth inhibition at MIC of 34 uM; format: functional; parameters: scale not given: the % may be the effect or the level left
[17] = test system: MCF7; assay: Anticancer activity against human MCF7 cells assessed as inhibition of cell growth at 20 to 80 ug/ml by sulforhodamine B assay; format: functional, cell-based; conditions: dose microg/ml 20-80
[18] = test system: Mycobacterium tuberculosis; assay: Antimycobacterial activity against Mycobacterium tuberculosis H37Rv assessed as bacterial growth inhibition at the MIC of 153 uM; format: functional; parameters: scale not given: the % may be the effect or the level left
[19] = test system: Mycobacterium tuberculosis; assay: Antimycobacterial activity against Mycobacterium tuberculosis H37Rv assessed as bacterial growth inhibition at MIC of 237 uM; format: functional; parameters: scale not given: the % may be the effect or the level left
[20] = test system: Mycobacterium tuberculosis; assay: Antimycobacterial activity against Mycobacterium tuberculosis H37Rv assessed as bacterial growth inhibition at MIC of 15 uM; format: functional; parameters: scale not given: the % may be the effect or the level left
[21] = test system: Mycobacterium tuberculosis; assay: Antimycobacterial activity against Mycobacterium tuberculosis H37Rv assessed as bacterial growth inhibition at MIC of 1343 uM; format: functional; parameters: scale not given: the % may be the effect or the level left
[22] = test system: Mycobacterium tuberculosis; assay: Antimycobacterial activity against Mycobacterium tuberculosis H37Rv assessed as bacterial growth inhibition at MIC of 144 uM; format: functional; parameters: scale not given: the % may be the effect or the level left
[23] = test system: HeLa; assay: Anticancer activity against human HeLa cells assessed as inhibition of cell growth at 40 to 80 ug/ml by sulforhodamine B assay; format: functional, cell-based; conditions: dose microg/ml 40-80
[24] = test system: MCF7; assay: Anticancer activity against human MCF7 cells assessed as inhibition of cell growth at 80 ug/ml by sulforhodamine B assay; format: functional, cell-based; conditions: dose 80.0 µg/ml
[25] = test system: Mycobacterium tuberculosis; assay: Antimycobacterial activity against Mycobacterium tuberculosis H37Rv assessed as bacterial growth inhibition at MIC of 31 uM; format: functional; parameters: scale not given: the % may be the effect or the level left
[26] = test system: Mycobacterium tuberculosis; assay: Antimycobacterial activity against Mycobacterium tuberculosis H37Rv assessed as bacterial growth inhibition at the MIC of 266 uM; format: functional; parameters: scale not given: the % may be the effect or the level left

SMILES | MIC [1] | MIC [3] | MIC [4] | MIC [5] | zone of inhibition at 4000 µg/mL [6] | zone of inhibition at 4000 µg/mL [7] | Activity [8] | zone of inhibition at 4000 µg/mL [9] | MIC [10] | zone of inhibition at 4000 µg/mL [11] | also measured
NNC(=O)c1ccncc1 [ISONIAZID] | 1.4 µM (≈ 0.192 µg/mL) | – | – | – | – | – | – | – | – | – | Activity [2]: 99%
O=C(c1ccncc1)N1NC(c2ccc(Cl)cc2)=CC1c1ccc([N+](=O)[O-])cc1 (configuration not stated) | 614 µM (≈ 250 µg/mL) | 122 µM (≈ 49.6 µg/mL) | 245 µM (≈ 99.7 µg/mL) | 245 µM (≈ 99.7 µg/mL) | 14.2 mm | 17.1 mm | Active | 23.4 mm | 122 µM (≈ 49.6 µg/mL) | 18.3 mm | Activity [12]: 95%
O=C(c1ccncc1)N1NC(c2ccc(Cl)cc2Cl)=CC1c1cccc([N+](=O)[O-])c1 (configuration not stated) | 566 µM (≈ 250 µg/mL) | 453 µM (≈ 200 µg/mL) | 226 µM (≈ 99.7 µg/mL) | 453 µM (≈ 200 µg/mL) | – | 12.4 mm | Active | 23.8 mm | 113 µM (≈ 49.9 µg/mL) | 21 mm | Activity [13]: 95%
O=C(c1ccncc1)N1NC(c2ccc(F)cc2)=CC1c1ccc(Br)cc1 (configuration not stated) | 294 µM (≈ 125 µg/mL) | 29 µM (≈ 12.3 µg/mL) | 235 µM (≈ 99.7 µg/mL) | 117 µM (≈ 49.6 µg/mL) | 12.4 mm | – | Active | 17.8 mm | 58 µM (≈ 24.6 µg/mL) | 22.3 mm | Activity [14]: 96%
O=C(c1ccncc1)N1NC(c2ccc(Cl)cc2)=CC1c1ccc(F)cc1 (configuration not stated) | 164 µM (≈ 62.3 µg/mL) | 131 µM (≈ 49.8 µg/mL) | 131 µM (≈ 49.8 µg/mL) | 263 µM (≈ 99.9 µg/mL) | 12.3 mm | 15 mm | Active | 22.3 mm | 32 µM (≈ 12.2 µg/mL) | – | Activity [15]: 96%
CC1(C)S[C@@H]2[C@H](NC(=O)[C@H](N)c3ccccc3)C(=O)N2[C@H]1C(=O)O [AMPICILLIN] | – | – | 8.9 µM (≈ 3.11 µg/mL) | – | – | 24.4 mm | – | 27.3 mm | 8.9 µM (≈ 3.11 µg/mL) | – | –
Cc1ccc(C2=CC(c3ccc(F)cc3)N(C(=O)c3ccncc3)N2)cc1 (configuration not stated) | 34 µM (≈ 12.2 µg/mL) | 139 µM (≈ 50 µg/mL) | 17 µM (≈ 6.11 µg/mL) | 278 µM (≈ 99.9 µg/mL) | – | – | Active | 27 mm | 139 µM (≈ 50 µg/mL) | – | Activity [16]: 99%; inhibition zone (IZ) [6]: Active; Activity [17]: Active
O=C(c1ccncc1)N1NC(c2ccc(Br)cc2)=CC1c1ccccc1 (configuration not stated) | 153 µM (≈ 62.2 µg/mL) | 123 µM (≈ 50 µg/mL) | 492 µM (≈ 200 µg/mL) | 492 µM (≈ 200 µg/mL) | 10.3 mm | – | Active | – | 123 µM (≈ 50 µg/mL) | – | Activity [18]: 97%
Cc1ccc(C2=CC(c3ccc(Br)cc3)N(C(=O)c3ccncc3)N2)cc1 (configuration not stated) | 237 µM (≈ 99.6 µg/mL) | 14 µM (≈ 5.88 µg/mL) | 14 µM (≈ 5.88 µg/mL) | 237 µM (≈ 99.6 µg/mL) | 20.4 mm | – | Active | 25.4 mm | 118 µM (≈ 49.6 µg/mL) | – | Activity [19]: 97%
CC[C@@H](CO)NCCN[C@@H](CC)CO [ETHAMBUTOL] | 15 µM (≈ 3.06 µg/mL) | – | – | – | – | – | – | – | – | – | Activity [20]: 99%
CN[C@@H]1[C@H](O[C@H]2[C@H](O[C@H]3[C@H](O)[C@@H](O)[C@H](N=C(N)N)[C@@H](O)[C@@H]3N=C(N)N)O[C@@H](C)[C@]2(O)C=O)O[C@@H](CO)[C@H](O)[C@H]1O [STREPTOMYCIN] | – | 5.3 µM (≈ 3.08 µg/mL) | 5.3 µM (≈ 3.08 µg/mL) | 5.3 µM (≈ 3.08 µg/mL) | 25 mm | 22.2 mm | – | 30.6 mm | 5.3 µM (≈ 3.08 µg/mL) | 29.1 mm | –
O=C(c1ccncc1)N1NC(c2ccccc2)=CC1c1cccc([N+](=O)[O-])c1 (configuration not stated) | 1340 µM (≈ 500 µg/mL) | 67 µM (≈ 24.9 µg/mL) | 537 µM (≈ 200 µg/mL) | 537 µM (≈ 200 µg/mL) | 12.3 mm | 10.2 mm | Active | 8.4 mm | 268 µM (≈ 99.8 µg/mL) | 15.3 mm | Activity [21]: 95%
COc1cccc(C2=CC(c3ccc(Br)cc3)N(C(=O)c3ccncc3)N2)c1 (configuration not stated) | 144 µM (≈ 62.8 µg/mL) | 229 µM (≈ 99.9 µg/mL) | 14 µM (≈ 6.11 µg/mL) | 114 µM (≈ 49.7 µg/mL) | 14.3 mm | 16.4 mm | Active | 26.4 mm | 57 µM (≈ 24.9 µg/mL) | 22.4 mm | Activity [22]: 98%; Activity [23]: Active; Activity [24]: Active
COc1cccc(C2=CC(c3ccc(Cl)cc3)N(C(=O)c3ccncc3)N2)c1 (configuration not stated) | 31 µM (≈ 12.1 µg/mL) | 63 µM (≈ 24.7 µg/mL) | 31 µM (≈ 12.1 µg/mL) | 511 µM (≈ 200 µg/mL) | 12.3 mm | 12.3 mm | Active | 27.2 mm | 127 µM (≈ 49.8 µg/mL) | – | Activity [25]: 99%
Cc1ccc(C2C=C(c3ccc(Cl)cc3)NN2C(=O)c2ccncc2)cc1 (configuration not stated) | 266 µM (≈ 100 µg/mL) | 133 µM (≈ 50 µg/mL) | 66 µM (≈ 24.8 µg/mL) | 533 µM (≈ 200 µg/mL) | – | 12.6 mm | Active | – | 533 µM (≈ 200 µg/mL) | 21.4 mm | Activity [26]: 98%
